For assay [1], the system named is LDL receptor expression in HepG2 cells. The assay is described as follows: Increase of LDL receptor expression in HepG2 cells, western-blot analysis. Type of assay: cell-based. The settings on record: Homo sapiens, minimum concentration at which a maximal induction of LDL receptor levels was observed. How it is done: Compounds and compositions of a particular embodiment of the invention are capable of specifically regulating LDL receptor gene expression. Compounds may be evaluated in vitro for their ability to increase LDL receptor expression using western-blot analysis, for example, as described by Tam et al. (J. Biol. Chem. 1991, 266, 16764). Preferred such compounds and compositions provide ECmax of less than about 50 μM, preferably less than about 5 μM, more preferably less than about 0.5 μM, more preferably less than about 0.05 μM, and most preferably less than about 0.005 μM in this assay (see, e.g. Example 28 herein). Established animal models to evaluate hypocholesterolemic effects of compounds are known in the art. For example, compounds disclosed herein are shown to lower cholesterol levels in hamsters fed a high-cholesterol diet, using a protocol simllar to that described by Spady et al. (J. Clin. Invest. 1988, 81, 300), Evans et al. (J. Lipid Res. 1994, 35, 1634), and Lin et al (J. Med. Chem. 1995, 38, 277).
Certain compounds were evaluated for their ability to increase LDL receptor expression in HepG2 cells using western-blot analysis as described by Tam et al., (J. Biol. Chem., 1991, 266, 16764). […] In all cases, the level of induction was greater than that observed under lipid-free conditions (activated system) in the absence of the test compounds.

A further assay concerns HeLa cells. In words: Inhibition of in vitro growth of HeLa cells (Alamar Blue uptake). Type of assay: cell-based. Conditions: Homo sapiens; concentration required to inhibit by 50% the uptake of Alamar Blue by HeLa cell cultures. The source says: Compounds and compositions of a particular embodiment of the invention display specific toxicity to various types of cells, preferably exerting their cytotoxic effects by interacting with cellular tubulin, preferably covalently and irreversibly. Compounds and compositions may be evaluated in vitro for their ability to inhibit cell grow, for example, as described by Ahmed et al. (J. Immunol. Methods 1994, 170, 211). […] Established animal models to evaluate antiproliferative effects of compounds are known in the art. For example, compounds can be evaluated for their ability to inhibit the growth of human tumors grafted into immunodeficient mice using methodology similar to that described by Rygaard and Poylsen (Acta Pathol. Microbiol. Scand. 1969, 77, 758) and Giovanella and Fogh (Adv. Cancer Res. 1985, 44, 69).
Compounds were evaluated for their ability to inhibit in vitro the growth of HeLa cells, an immortal cell line derived from a human cervical carcinoma commonly used to evaluate the cytotoxicity of potential therapeutic agents. The following data reflect the cytotoxicity of selected examples of the present invention. The values given represent the concentration of test compound required to inhibit by 50% the uptake of Alamar Blue (Biosource International, Camarillo, Calif.) by HeLA cell cultures, which correlates directly with the overall levels of cellular metabolism in the culture, and is generally accepted as an appropriate′marker of cell growth. The test was conducted according to the method of Ahmed et al. (J. Immunol. Methods 1994, 170, 211).

One may read the IC50 as the point on the concentration scale where inhibition reaches its midpoint. In assay [1], `COc1ccc(NS(=O)(=O)c2cc(Br)c(F)c(F)c2F)cc1` [Example 10, 1-Bromo-2,3,4-trifluoro-5-[(4-methoxyphenyl)aminosulfonyl]benzene] gave an EC (max) of 1.5 µM. The half-inhibitory concentration (IC50) with HeLa cells worked out at 0.5 µM.

Turning to `COc1ccc(NS(=O)(=O)c2c(F)c(F)c(F)c(F)c2Br)cc1` [Example 4, 1-Bromo-3,4,5,6-tetrafluoro-2-[(4-methoxyphenyl)aminosulfonyl]benzene], the EC (max) in assay [1] was found to be 0.5 µM. This molecule also registered an IC50 in the assay on HeLa cells of 0.15 µM.

In assay [1], `COc1ccc(NS(=O)(=O)c2c(F)c(F)c(F)c(F)c2Br)cc1O` [Example 3, 1-Bromo-3,4,5,6-tetrafluoro-2-[(3-hydroxy-4-methoxyphenyl)aminosulfonyl]benzene] showed an EC (max) of 0.15 µM. The IC50 in the assay with HeLa cells is 0.05 µM.

On to `COc1ccc(NS(=O)(=O)c2c(F)c(Cl)c(F)c(Cl)c2F)cc1` [Example 8, 1,3-Dichloro-2,4,6-trifluoro-5-[(4-methoxyphenyl)aminosulfony]benzene], for which, in assay [1], the EC (max) was 0.5 µM. The same molecule registered an IC50 in the assay on HeLa cells of 0.15 µM.

In assay [1], `COc1ccc(NS(=O)(=O)c2c(F)c(F)c(F)c(Br)c2F)cc1` [Example 5] came in with an EC (max) of 0.5 µM. 0.15 µM corresponded to half-maximal inhibition in the assay on HeLa cells (IC50).

In the case of `COc1ccc(NS(=O)(=O)c2c(F)c(F)c(Br)c(F)c2F)cc1` [Example 6, 1-Bromo-2,3,5,6-tetrafluoro-4-[(4-methoxyphenyl)aminosulfonyl]benzene], the EC (max) in assay [1] worked out at 50 µM. In the assay with HeLa cells, this molecule showed a 50% inhibitory concentration (IC50) of 5 µM.

In assay [1], `COc1ccc(NS(=O)(=O)c2ccc(F)c([N+](=O)[O-])c2)cc1O` [Example 2, 4-Fluoro-1-[(3-hydroxy-4-methoxyphenyl)aminosulfonyl]-3-nitrobenzene] had an EC (max) of 1.5 µM. Besides, the IC50 in the assay on HeLa cells worked out at 0.15 µM.

For the molecule `COc1ccc(NS(=O)(=O)c2cc(F)c(F)c(F)c2)cc1O` [Example 23, 3,4,5-Trifluoro-1-[(3-hydroxy-4-methoxyphenyl)aminosulfonyl]benzene], the IC50 with HeLa cells turned out to be 1.5 µM. In other words, the single-digit micromolar range.

Take `COc1ccc(NS(=O)(=O)c2c(F)c(F)c(Cl)c(F)c2F)cc1` [Example 7, 1-Chloro-2,3,5,6-tetrafluoro-4-[(4-methoxyphenyl)aminosulfonyl]benzene]: the EC (max) in assay [1] amounted to 50 µM. In the assay with HeLa cells, inhibition was half-maximal at 1.5 µM (IC50).

In assay [1], `COc1ccc(NS(=O)(=O)c2cc(F)c(F)c(F)c2)cc1` [Example 22, 3,4,5-Trifluoro-1-[(4-methoxyphenyl)aminosulfonyl]benzene] returned an EC (max) of 5 µM. Half-maximal inhibition in the assay with HeLa cells (IC50) required 5 µM.

In assay [1], `COc1ccc(NS(=O)(=O)c2cc(F)c(F)c(F)c2F)cc1` [Example 20, 2,3,4,5-Tetrafluoro-1-[(4-methoxyphenyl)aminosulfonyl]benzene] gave an EC (max) of 1.5 µM. The molecule further showed an IC50 in the assay on HeLa cells of 0.5 µM.

The molecule `COc1ccc(NS(=O)(=O)c2cc(F)c(F)c(F)c2F)cc1O` [Example 21, 2,3,4,5-Tetrafluoro-1-[(3-hydroxy-4-methoxyphenyl)aminosulfonyl]benzene] had an EC (max) in assay [1] of 0.5 µM. The molecule also showed an IC50 in the assay on HeLa cells of 0.15 µM.

As to `COc1ccc(NS(=O)(=O)c2c(F)cc(F)c(F)c2F)cc1` [Example 19, 2,3,4,6-Tetrafluoro-1-[(4-methoxyphenyl)aminosulfonyl]benzene], the EC (max) in assay [1] turned out to be 15 µM. For the same molecule, the IC50 with HeLa cells worked out at 5 µM.

Molecule `COc1ccc(NS(=O)(=O)c2c(F)c(Cl)c(F)c(Cl)c2F)cc1O` [Example 9, 1,3-Dichloro-2,4,6-trifluoro-5-[(3-hydroxy-4-methoxyphenyl)aminosulfonyl]benzene] came in with an EC (max) in assay [1] of 0.15 µM. Besides, the midpoint of inhibition in the assay with HeLa cells, the IC50, lay at 0.05 µM.

In assay [1], `COc1ccc(NS(=O)(=O)c2cc(F)c(F)c(F)c2Br)cc1` [Example 11, 1-Bromo-4,5,6-trifluoro-2-[(4-methoxyphenyl)aminosulfonyl]benzene] yielded an EC (max) of 1.5 µM. Besides, the IC50 with HeLa cells was 0.5 µM.

`COc1ccc(NS(=O)(=O)c2ccc(F)c(F)c2F)cc1O` [Example 17, 1-[(3-Hydroxy-4-methoxyphenyl)aminosulfonyl]-2,3,4-trifluorobenzene] showed an IC50 in the assay with HeLa cells of 1.5 µM.

Take `COc1ccc(NS(=O)(=O)c2ccc(F)c([N+](=O)[O-])c2)cc1` [Example 1, 4-Fluoro-1-[(4-methoxyphenyl)aminosulfonyl]-3-nitrobenzene]: the EC (max) in assay [1] turned out to be 5 µM.

`COc1ccc(CS(=O)(=O)c2c(F)c(F)c(F)c(F)c2F)cc1` [Example 24, 4-Methoxybenzyl Pentafluorophenyl Sulfone] yielded an EC (max) in assay [1] of 1.5 µM. The molecule also came in with an IC50 with HeLa cells of 5 µM.

(Values after US6388131B2, “Benzene compounds as antiproliferative and cholesterol lowering agents” (Tularik, Inc., priority 1997, dated 2002).)
